Measurements from US20040014814A1, “Compositions and methods for delaying preventing rejuvenating or reversing senescence in cells” (priority 2000, published 2004).

How the values were obtained:
MRC-5 cells [1] = assay: Effect of carnosine derivatives on cell growth / toxicity in MRC-5 cell cultures; assay type: cell-based, human; set-up: key to Effect on cell growth (score): (0) Toxic to cell growth; (10) Confluent cell growth; conditions: for Effect on cell growth (score): MRC-5 cells, scale 0 toxic to 10 confluent; for Cell Growth: summary grade
Description: (§1) MRC -5 cells (fetal lung fibroblasts) were grown in Dulbecco's modification of Eagles' minimum essential medium (DMEM Gibco BRL Cat. No. 12800-017) containing 0.45% glucose, or MEM (Gibco BRL Cat. No. 612800-017) containing 0.1% glucose. Both media contained 10% fetal calf scrum (TRACE Biosciences Cat. No. 15-010-0500V) and Penicillin/Streptomycin 5000 IU, 5000 μg/ml (TRACE Biosciences Cat. No. 21-140-0100V). Cells were grown in […] flasks or in dishes (35 mm or 60 mm, Nunc) at 37° C. with 5% CO2. Cells were harvested with trypsin (TRACE Biosciences Cat. No. 21-163-0100V) and counted with a model ZF6 Coulter Counter. Cells were split in ratios of 1:2 or 1:4. Population doublings (PDs) were calculated from the ratio of the initial number of cells plated to the yield of cells after a period of time. This provides an accurate measure of cell growth, with the split ratios 1:2 and 1:4 corresponding to one and two passages respectively, which are broadly equivalent to population doublings. The media was changed every 5 days or when cells became confluent.
MRC-5 cells were used to observe the toxicity of a series of derivatives of carnosine on cell growth. Cell cultures were grown in DMEM media with 10% fetal calf serum and supplemented with the following carnosine analogues: carnosine ethyl ester, carnosine iso-propyl ester, carnosine n-butyl ester, carnosine n-hexyl ester, N-propyl carnosine, N-hexanoyl carnosine, N-trimethyl acetyl carnosine, N-acetyl carnosine methyl ester, N-acetyl carnosine ethyl ester and N-acetyl carnosine, […] Cells were also grown in DMEM supplemented with carnosine at 20 mM. […] Even at lower concentrations cell morphology was that of cells that have reached senescence i.e. broad flat cells with long process reaching out to other cells. Cell numbers were less than in the control flasks. […] As shown in FIG. 1 Acetyl-carnosine achieved a lifespan 5 PDs greater than the control and 6.7 PDs greater than carnosine over a 43 day period. […] In the early phase of the experiment growth rates were markedly greater than with the other compounds (FIG. 1).

MRC-5 cells [2] = assay: Lifespan (population doublings) of MRC-5 cells in culture; assay type: cell-based, human; set-up: key to Lifespan extension: 0 = zero effect; 10 = maximum effect; conditions: for Lifespan of MRC-5 cells in culture, Population Doublings (PD): commenced at passage 55; for Lifespan extension: summary grade
Description: Cultures were split in a 1:4 ratio when flasks were approximately 70-80% confluent.
as §1
MRC-5 cells were used to observe the toxicity of a series of derivatives of carnosine on cell growth. Cell cultures were grown in DMEM media with 10% fetal calf serum and supplemented with the following carnosine analogues: carnosine ethyl ester, carnosine iso-propyl ester, carnosine n-butyl ester, carnosine n-hexyl ester, N-propyl carnosine, N-hexanoyl carnosine, N-trimethyl acetyl carnosine, N-acetyl carnosine methyl ester, N-acetyl carnosine ethyl ester and N-acetyl carnosine, at concentrations ranging between 1 mM to 20 mM. Cells were also grown in DMEM supplemented with carnosine at 20 mM. […] Even at lower concentrations cell morphology was that of cells that have reached senescence i.e. broad flat cells with long process reaching out to other cells. Cell numbers were less than in the control flasks. […] As shown in FIG. 1 Acetyl-carnosine achieved a lifespan 5 PDs greater than the control and 6.7 PDs greater than carnosine over a 43 day period. […] In the early phase of the experiment growth rates were markedly greater than with the other compounds (FIG. 1).
In fact all populations of MRC-5 cells grown in DMEM supplemented with acetyl-carnosine preserved a younger phenotype for much longer than cells grown in DMEM supplemented with carnosine or its analogues.
Under control conditions the range was 57.3-64.5 PDs (n=5). With the addition of carnosine (20mM) to the medium the range was 61.8-63.7 PDs (n=5) with an average increase of 1.4 PDs which represents a 3 fold increase in cell number. However, when acetyl-carnosine (5 mM) was added to the medium, the range was 62.3-70.3 PDs (n=5) with an average increase of 5 PDs compared with the controls. This represents a 32 fold increase in cell number.

corneal epithelial cells = assay: Uptake of radio-labeled (3H) compounds in fresh bovine eyes (corneal epithelium into aqueous humour); assay type: in vitro ADME; conditions: after 4 hours
Description: Radio-labeled (3H) carnosine and acetyl-carnosine were assayed for their rate of uptake using fresh bovine eyes and MRC-5 fibroblast cultures. For bovine eyes small cylinders (radius 3.5mm and height 8mm) placed on top of the eye formed a fix seal with the corneal epithelial cells. 200 microlitres of the radio-labeled compounds in 5mM unlabeled compound in phosphate buffered saline were instilled onto the eye and at different time points 600 μl of aqueous humour was aspirated using a 25 gauge needle for counting in the scintillation counter.
The uptake experiments were repeated using fresh bovine eyes.

human blood peptidases = assay: Stability in human blood serum / attack by human blood peptidases; assay type: in vitro ADME; conditions: human blood serum
[3] = Fate of compound after cellular uptake; assay type: cell-based; conditions: compared with acetyl-carnosine
Description: Experiments were conducted to determine the fate of acetyl-carnosine and carnosine after cellular uptake. […] A slower metabolism and incorporation into other proteins may be one reason for acetyl-carnosine having higher effective intracellular concentrations compared with carnosine despite its lower overall uptake.

MRC-5 cells [4] = test system: MRC-5 cells; set-up: Cell and eye uptake assay: key to the marks not given beside the values
MRC-5 cells [5] = conditions: carnosine supplemented media; cited from earlier work
senescent MRC-5 cells = conditions: 20 mM; PCT/AU91/00541; cited from earlier work
[6] = test system: UV-Induced Immuno-suppression; set-up: key: 0 = zero effect; 10 = maximum effect; conditions: footnote (3) Australian provisional PQ 5150; cited from earlier work
MRC-5 cells [7] = assay: Uptake of radio-labeled (3H) compounds by MRC-5 fibroblast cells; conditions: MRC-5 cells, after 48 hours
Description: For MRC-5 cells, (3H)—carnosine and acetyl carnosine were added to the medium of near confluent 60mm culture dishes. At different time points cells were washed three times with phosphate buffered saline, cells harvested and cell-associated radioactivity determined using Packard Starscint scintillation fluid.
The rate of uptake of carnosine and acetyl-carnosine by MRC-5 cells was studied using radio-labeled tritiated (3H) carnosine and acetyl-carnosine compounds. The uptake was measured in MRC-5 cells at passage 28 over a 48 hour period (FIG. 3A).

Row | Molecule | Effect on cell growth (score) (MRC-5 cells [1]; 2 mM) | Effect on cell growth (score) (MRC-5 cells [1]; 5 mM) | Effect on cell growth (score) (MRC-5 cells [1]; 10 mM) | Effect on cell growth (score) (MRC-5 cells [1]; 20 mM) | Cell Growth (MRC-5 cells [1]) | Effect on cell growth (score) (MRC-5 cells [1]; 0.5 mM) | Effect on cell growth (score) (MRC-5 cells [1]; 1 mM) | Lifespan of MRC-5 cells in culture, Population Doublings (PD) (MRC-5 cells [2]; 5 mM) | Lifespan extension (MRC-5 cells [2]) | other results
1 | CCCCOC(=O)[C@@H](Cc1cnc[nH]1)NC(=O)CCN [Carnosine n-butyl ester, carnosine n-butyl ester] | 5 | 5 | 2 | 0 | TOXIC |  |  |  |  | 
2 | CCOC(=O)C(Cc1cnc[nH]1)NC(=O)CCNC(C)=O (centres unmarked) [N-acetyl carnosine ethyl ester] | 4 | 4 | 2 | 0 |  | 6 | 5 |  |  | 
3 | CCCCCC(=O)NCCC(=O)N[C@@H](Cc1c[nH]cn1)C(=O)O [N-hexanoyl carnosine] | 5 | 4 | 3 | 3 |  | 6 | 6 | 10.8 | 0 | 
4 | N-propyl carnosine | 5 | 4 | 3 | 2 |  | 6 | 6 | 11.0 | 0 | 
5 | NCCC(=O)N[C@@H](Cc1cnc[nH]1)C(=O)O [Carnosine, β-alanyl-L-histidine, reference compound] |  | 5 | 6 | 7 |  |  |  |  |  | Range of lifespans of populations of MRC-5 cells (MRC-5 cells [2]; 20 mM in medium, n=5): 61.8-63.7 PDs; Lifespan of MRC-5 cells in culture, Population Doublings (PD) (MRC-5 cells [2]; 20 mM): 8.5 PD; Average increase in lifespan compared with controls (MRC-5 cells [2]; 20 mM, n=5): 1.4 PDs; Increase in cell number (MRC-5 cells [2]; 20 mM, worked out from the PD increase): 3 fold; Increase in cell mass (MRC-5 cells [2]; cells exposed to supplemented media): 3 fold; Uptake of (3H) compound into aqueous humour (corneal epithelial cells): 1.3%; Uptake relative to acetyl-carnosine (corneal epithelial cells): 2 times; Stability in human blood serum (human blood peptidases): rapidly destroyed; Incorporation of label into higher molecular weight proteins after uptake [3]: more rapidly incorporated into higher molecular weight proteins; Cell and eye uptake assay (MRC-5 cells [4]): ++++; Uptake of (3H) compound by MRC-5 cells (MRC-5 cells [4]; human, 48 h): 0.32%; Uptake relative to acetyl-carnosine (MRC-5 cells [4]; human, 48 h): 2 times; Increase in cell mass reported by McFarland & Holliday (MRC-5 cells [5]): 12 fold; Effect on senescent MRC-5 cells transferred to supplemented medium (senescent MRC-5 cells): rejuvenated; UV immuno suppression: post irradiation assay (3) [6]: 0; Number of cells growing in supplemented media (MRC-5 cells [7]): 2.4×10^6
6 | CC(C)OC(=O)[C@H](Cc1cnc[nH]1)NC(=O)CCN [Carnosine iso-propyl ester, carnosine iso-propyl ester] | 2 | 0 | 0 | 0 | TOXIC |  |  |  |  | 
7 | CC(C)(C)C(=O)NCCC(=O)NC(Cc1cnc[nH]1)C(=O)O (centres unmarked) [N-trimethyl acetyl carnosine] | 5 | 4 | 3 | 3 |  | 6 | 6 | 9.4 | 0 | 
8 | COC(=O)C(Cc1cnc[nH]1)NC(=O)CCNC(C)=O (centres unmarked) [N-acetyl carnosine methyl ester] | 5 | 5 | 5 | 0 |  | 6 | 6 |  |  | 
9 | CCCCCCOC(=O)[C@H](Cc1c[nH]cn1)NC(=O)CCN [carnosine n-hexyl ester] | 3 | 1 | 0 | 0 | TOXIC |  |  |  |  | 
10 | CCOC(=O)[C@H](Cc1cnc[nH]1)NC(=O)CCN [Carnosine ethyl ester, carnosine ethyl ester] | 5 | 5 | 4 | 3 |  |  |  |  |  | 
